Patent US20110165115A1, “SYNERGISTIC ATTRACTANTS FOR PESTIFEROUS SOCIAL INSECTS” (STERLING INTERNATIONAL INC., priority 2010, published 2011)

Legend:
[1] = test system: V. acadica; test: Field trapping Experiment 1, Rescue W•H•Y traps; type: in vivo, Vespula acadica; conditions: Exp 1; HIPV added to WHY attractant in the top chamber, or WHY alone
Protocol: (§1) Three field trapping experiments were carried out during late July to early August 2009, in residential and woody areas around Spokane, Wash., USA, using the newly marketed Rescue® W•H•Y traps (www.rescue.com). As used herein, the W•H•Y trap is a trap in accordance with the description of United States Patent Application Publication No. 2009/0151228. The W•H•Y trap has a top chamber and a bottom chamber. The top chamber is baited with two attractants—one of which is a solid contained in a vial (2-methyl-1-butanol) and the other a liquid mixed with water (acetic acid), herein referred to as the W•H•Y top attractant. The bottom chamber is baited with a liquid attractant (heptyl butyrate) poured onto a cotton pad, herein referred to as the W•H•Y bottom attractant. Separation of the top and bottom attractants (otherwise antagonistic to each other when released from the same chamber) in two chambers was a design feature of this trap and creates two focal attraction sources from one trap for different species of wasps, hornets, and yellowjackets. Traps were hung 1.5-2.0 m above the ground on either the fence or tree branches ca. 5 m apart within each trap line. For each trapping experiment, six sets of traps were deployed with their initial trap positions within each set being randomized. To minimize positional effects and obtain more replications, wasp collections and trap re-randomization were carried out when ≧10-20 wasps were caught in the best trap. Each replicate lasted several days depending on wasp flight activity. Captured wasps were removed from the traps and kept in the zip-bags before taking back to the laboratory for recording of the species, gender status, and catch.
(§2) Experiment 3 (Aug. 5-13, 2009) was conducted to determine the potential behavioral activity of different doses of (E)-4,8-dimethyl-1,3,7-nonatriene alone. The individual (or different doses) HIPVs were loaded into either polyethylene bags or centrifuge tube type of dispensers, and released from the top of the W•H•Y trap chamber. W•H•Y trap attractants (both top and bottom or top only) alone and water (top chamber only) were included in the test as positive and blank controls, respectively. The dispenser types, loading and release rates of the tested semiochemicals are described in Tables 1, 2 and 3.
(§3) Trap catch data were converted to proportion (P) of total captured wasps within each replicate. Data were then transformed by arcsin√P to meet the assumptions of normality and homogeneity of variances for ANOVA. Means were compared by ANOVA followed by the Ryan-Einot-Gabriel-Welsh (REGW) multiple Q test (SPSS 16.0 for Windows) at α=0.05.

[2] = test system: V. consobrina; type: in vivo, Vespula consobrina; conditions: Exp 1; HIPV added to WHY attractant in the top chamber, or WHY alone
Protocol: as §1, with “catch. […]” for “catch.”
as §3

[3] = test system: P. dominulus; test: Field trapping Experiment 2, DMNT dose-response with W•H•Y top attractants; type: in vivo, Polistes dominulus; conditions: Exp 2, DMNT added to WHY top attractant
Protocol: as §1, §2, §3

[4] = test system: V. pensylvanica; test: Field trapping Experiment 3, different doses of DMNT alone; type: in vivo, Vespula pensylvanica
Protocol: as §1, §2, §3

[5] = test system: V. germanica; test: as above; type: in vivo, Vespula germanica
Protocol: as §1, §2, §3

[6] = test system: D. arenaria; test: as above; type: in vivo, Dolichovespula arenaria
Protocol: as §1
Experiment 1 (Jul. 22-30, 2009) tested ten synthetic HIPV candidates [(E)-2-hexenal, (Z)-3-hexen-1-ol, (Z)-3-hexenyl acetate, cis-ocimene, linalool, methyl salicylate, geranyl acetate, trans-β-caryophyllene, trans-β-farnesene and (E)-4,8-dimethyl-1,3,7-nonatriene], including several paper wasp EAD-active compounds (see FIG. 2 for details), to determine their potential synergistic effect on the Rescue® W•H•Y trap attractants to paper wasps, yellowjackets, and hornets. Experiment 2 (Aug. 5-13, 2009) tested behavioral responses of the paper wasps and yellowjackets to the Rescue® W•H•Y trap attractants (top attractants only) and its combination with (E)-4,8-dimethyl-1,3,7-nonatriene, one of the EAD-active and behaviorally significant HIPVs, in a dose-response fashion. Experiment 3 (Aug. 5-13, 2009) was conducted to determine the potential behavioral activity of different doses of (E)-4,8-dimethyl-1,3,7-nonatriene alone. The individual (or different doses) HIPVs were loaded into either polyethylene bags or centrifuge tube type of dispensers, and released from the top of the W•H•Y trap chamber. W•H•Y trap attractants (both top and bottom or top only) alone and water (top chamber only) were included in the test as positive and blank controls, respectively. The dispenser types, loading and release rates of the tested semiochemicals are described in Tables 1, 2 and 3.
as §3

[7] = test system: P. dominulus; test: as above; type: in vivo, Polistes dominulus
Protocol: as §1, §2, §3

[8] = test system: paper wasps and yellowjackets; test: Field trapping Experiment 2; type: in vivo, V. pensylvanica, V. vulgaris and P. dominulus; conditions: Exp 2
Protocol: as §1, with “To minimize positional effects and obtain more replications, wasp collections and trap re-randomization were carried out when ≧10-20 wasps were caught in the best trap. Each replicate lasted several days depending on wasp flight activity. Captured wasps were removed from the traps and kept in the zip-bags before taking back to the laboratory for recording of the species, gender status, and catch.” left out

[9] = Exp 3, release rate 0.25, hole 0.5 mm, loading 15 μL
[10] = Exp 3, release rate 0.5, hole 1 mm, loading 30 μL
[11] = Exp 3, release rate 1, hole 2 mm, loading 75 μL
[12] = Exp 3, release rate 1.5, hole 3 mm, loading 175 μL
[13] = Exp 3, release rate 2, hole 5.5 mm, loading 325 μL

## CC/C=C\CCOC(C)=O [Z-3-Hexenyl Acetate, (Z)-3-hexenyl acetate]
[1]
  Total Yellowjacket Catches V. acadica: 1
[2]
  Total Yellowjacket Catches V. consobrina: 1

## C=C/C=C(\C)CCC=C(C)C [(E)-4,8-dimethyl-1,3,7-nonatriene]
[1]
  Total Yellowjacket Catches V. acadica: 1
[2]
  Total Yellowjacket Catches V. consobrina: 0
[3]; release rate 0.25, hole 0.5 mm, loading 15 μL
  Total Paper Wasps Caught P. dominulus: 7
[3]; release rate 0.5, hole 1 mm, loading 30 μL
  Total Paper Wasps Caught P. dominulus: 2
[3]; release rate 1, hole 2 mm, loading 75 μL
  Total Paper Wasps Caught P. dominulus: 13
[3]; release rate 1.5, hole 3 mm, loading 175 μL
  Total Paper Wasps Caught P. dominulus: 8
[3]; release rate 2, hole 5.5 mm, loading 325 μL
  Total Paper Wasps Caught P. dominulus: 5
[4]; [9]
  Total Yellowjackets Caught V. pensylvanica: 43
[4]; [10]
  Total Yellowjackets Caught V. pensylvanica: 12
[4]; [11]
  Total Yellowjackets Caught V. pensylvanica: 34
[4]; [12]
  Total Yellowjackets Caught V. pensylvanica: 24
[4]; [13]
  Total Yellowjackets Caught V. pensylvanica: 24
[5]; [9]
  Total Yellowjackets Caught V. germanica: 0
[5]; [10]
  Total Yellowjackets Caught V. germanica: 0
[5]; [11]
  Total Yellowjackets Caught V. germanica: 0
[5]; [12]
  Total Yellowjackets Caught V. germanica: 0
[5]; [13]
  Total Yellowjackets Caught V. germanica: 0
[6]; [9]
  Total Yellowjackets Caught D. arenaria: 0
[6]; [10]
  Total Yellowjackets Caught D. arenaria: 0
[6]; [11]
  Total Yellowjackets Caught D. arenaria: 0
[6]; [12]
  Total Yellowjackets Caught D. arenaria: 0
[6]; [13]
  Total Yellowjackets Caught D. arenaria: 0
[7]; [9]
  Total Paper Wasps Caught P. dominulus: 7
[7]; [10]
  Total Paper Wasps Caught P. dominulus: 6
[7]; [11]
  Total Paper Wasps Caught P. dominulus: 4
[7]; [12]
  Total Paper Wasps Caught P. dominulus: 17
[7]; [13]
  Total Paper Wasps Caught P. dominulus: 10
[8]; 0.5 or 1-1.5 mg/day added to the top attractants, especially V. pensylvanica, V. vulgaris and P. dominulus
  effect on trap catches of the vespid workers: significantly increased
[8]; other release rates (doses) added to the top attractants
  effect on the trap catches: no effect

## CC/C=C\CCO [Z-3-Hexanol, (Z)-3-hexen-1-ol]
[1]
  Total Yellowjacket Catches V. acadica: 0
[2]
  Total Yellowjacket Catches V. consobrina: 0

## COC(=O)c1ccccc1O [Methyl Salicylate, methyl salicylate]
[1]
  Total Yellowjacket Catches V. acadica: 0
[2]
  Total Yellowjacket Catches V. consobrina: 2
